Test results: PubChem BioAssay (NCI)
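Results reflect a 48-hour exposure of cells in 96-well plates to compound at five concentrations. GI50 = concentration required for 50% inhibition of growth. Definition used: TGI = concentration required for complete inhibition of growth.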

Columns and labels:
Experiment in all cases: NCI tumour cell line growth inhibition, 48 h
[1] = test system: 786-0 renal
[2] = test system: A498 renal
[3] = test system: A549 NSCLC
[4] = test system: ACHN renal
[5] = test system: BT-549 breast
[6] = test system: CAKI-1 renal
[7] = test system: COLO 205 colon
[8] = test system: DU-145 prostate
[9] = test system: EKVX NSCLC
[10] = test system: HCC-2998 colon
[11] = test system: HCT-15 colon
[12] = test system: HL-60(TB) leukemia
[13] = test system: HOP-62 NSCLC
[14] = test system: HOP-92 NSCLC
[15] = test system: HS 578T breast
[16] = test system: HT29 colon
[17] = test system: IGROV1 ovarian
[18] = test system: K-562 leukemia
[19] = test system: KM12 colon
[20] = test system: LOX IMVI melanoma
[21] = test system: M14 melanoma
[22] = test system: MALME-3M melanoma
[23] = test system: MCF7 breast
[24] = test system: MDA-MB-435
[25] = test system: MDA-MB-468 breast
[26] = test system: MOLT-4 leukemia
[27] = test system: NCI-H226 lung
[28] = test system: NCI-H23 lung
[29] = test system: NCI-H460 lung
[30] = test system: NCI-H522 lung
[31] = test system: OVCAR-3 ovarian
[32] = test system: OVCAR-4 ovarian
[33] = test system: OVCAR-5 ovarian
[34] = test system: OVCAR-8 ovarian
[35] = test system: PC-3 prostate
[36] = test system: RXF 393 renal
[37] = test system: SF-268 CNS
[38] = test system: SF-295 CNS
[39] = test system: SF-539 CNS
[40] = test system: SK-MEL-2 melanoma
[41] = test system: SK-MEL-28 melanoma
[42] = test system: SK-MEL-5 melanoma
[43] = test system: SK-OV-3 ovarian
[44] = test system: SN12C renal
[45] = test system: SNB-75 CNS
[46] = test system: SW-620 colon
[47] = test system: TK-10 renal
[48] = test system: U251 CNS
[49] = test system: UACC-257 melanoma
[50] = test system: UACC-62 melanoma

## C=C1CC[C@@H]2[C@]3(C)COC(c4cn[nH]c4-c4cccc(Br)c4)O[C@@H]3CC[C@@]2(C)[C@@H]1C/C=C1/C(=O)OCC1O (stereo not given in full)
[1]
  GI50: 1.92 µM
  TGI: 3.6 µM
[2]
  GI50: 20.8 µM
  TGI: 35.4 µM
[3]
  GI50: 3.37 µM
  TGI: 14.1 µM
[4]
  GI50: 1.95 µM
  TGI: 3.97 µM
[5]
  GI50: 1.44 µM
  TGI: 3 µM
[6]
  GI50: 2.77 µM
  TGI: 7.05 µM
[7]
  GI50: 2.18 µM
  TGI: 4.48 µM
[8]
  GI50: 3.08 µM
  TGI: 9.43 µM
[9]
  GI50: 2.15 µM
  TGI: 4.81 µM
[10]
  GI50: 1.87 µM
  TGI: 3.53 µM
[11]
  GI50: 1.66 µM
  TGI: 3.78 µM
[12]
  GI50: 1.87 µM
  TGI: 7.43 µM
[13]
  GI50: 3.78 µM
  TGI: 13.7 µM
[14]
  GI50: 2.21 µM
  TGI: 5.1 µM
[15]
  GI50: 5.27 µM
  TGI: 59.4 µM
[16]
  GI50: 2.1 µM
  TGI: 4.82 µM
[17]
  GI50: 2.72 µM
  TGI: 6.46 µM
[18]
  GI50: 1.93 µM
  TGI: 8.65 µM
[19]
  GI50: 2.44 µM
  TGI: 6.13 µM
[20]
  GI50: 1.39 µM
  TGI: 2.7 µM
[21]
  GI50: 2.52 µM
  TGI: 7.22 µM
[22]
  GI50: 1.93 µM
  TGI: 4.25 µM
[23]
  GI50: 1.28 µM
  TGI: 3.95 µM
[24]
  GI50: 3.4 µM
  TGI: 14.1 µM
[25]
  GI50: 1.61 µM
  TGI: 3.22 µM
[26]
  GI50: 2.29 µM
  TGI: 18.7 µM
[27]
  GI50: 1.62 µM
  TGI: 3.09 µM
[28]
  GI50: 1.84 µM
  TGI: 3.62 µM
[29]
  GI50: 2.43 µM
  TGI: 6.29 µM
[30]
  GI50: 1.9 µM
  TGI: 3.77 µM
[31]
  GI50: 2.02 µM
  TGI: 3.99 µM
[32]
  GI50: 4.47 µM
  TGI: 30.1 µM
[33]
  GI50: 2.14 µM
  TGI: 4.72 µM
[34]
  GI50: 1.88 µM
  TGI: 6.17 µM
[35]
  GI50: 3.07 µM
  TGI: 11.6 µM
[36]
  GI50: 1.81 µM
  TGI: 3.26 µM
[37]
  GI50: 12.6 µM
  TGI: 40.3 µM
[38]
  GI50: 1.83 µM
  TGI: 3.99 µM
[39]
  GI50: 1.74 µM
  TGI: 3.22 µM
[40]
  GI50: 2.55 µM
  TGI: 5.59 µM
[41]
  GI50: 1.93 µM
  TGI: 3.83 µM
[42]
  GI50: 1.75 µM
  TGI: 3.19 µM
[43]
  GI50: 5.8 µM
  TGI: 21.4 µM
[44]
  GI50: 2.03 µM
  TGI: 4.78 µM
[45]
  GI50: 2.45 µM
  TGI: 7.86 µM
[46]
  GI50: 2.22 µM
  TGI: 5.05 µM
[47]
  GI50: 5.1 µM
  TGI: 18.9 µM
[48]
  GI50: 1.81 µM
  TGI: 3.36 µM
[49]
  GI50: 2.85 µM
  TGI: 9.7 µM
[50]
  GI50: 1.55 µM
  TGI: 3.15 µM
